Experimental data taken from US20140256771A1, “COMPOUNDS THAT MODULATE INTRACELLULAR CALCIUM” (CalciMedica, Inc., priority 2011, published 2014).
Like-named read-outs stand apart in the source and are kept apart here.

Tests used:
RBL-2H3 cells = assay: Fluorescence-based assay of store-operated calcium entry in RBL-2H3 cells; format: cell-based, rat; set-up: key to RBL-2H3 (IC50, μmol): A < 0.6 μmol; 0.6 μmol ≦ B ≦ 1.2 μmol; C > 1.2 μmol; — = no fit; conditions: thapsigargin store depletion, 50% inhibition of Upslope; for IC50: Rattus norvegicus, RBL-2H3, read-out: RBL-2H3 (IC50, μmol)
Method: B. Fluorescence-based Assay of Store-Operated Calcium Entry in RBL-2H3Cells.
RBL-2H3 cells are obtained from ATCC and maintained in complete medium with 10% FBS at 37° C./6% CO2.
The day prior to performing the assay, RBL-2H3 cells are plated in 50 μL of complete medium in a 384 well plate. Cells are grown at 37° C./6% CO2 overnight and grow to 50-60% confluence by the next day. On the assay day, 1.5 μM Fluo-4-AM dye (Invitrogen) in complete medium is added and incubated for 1 hour at RT. Cells are washed twice in Ca^2+-free HBSS buffer and 35 μL Ca^2+-free HBSS buffer is added to each well. 10 μL of a test compound prepared in a Ca^2+-free HBSS solution at 4.5× of the desired concentration is added to a well and incubated for 5 minutes at RT. 10 μL of thapsigargin prepared in a Ca^2+-free HBSS solution at 5.5× of the desired concentration (5.5 uM) is added to each well and incubated for an additional 25 minutes. The initial baseline fluorescence signal is measured with a FLIPR^384 (Molecular Devices) plate reader. 5 μL of 12× calcium in HBSS (12 mM) is added and changes in cellular fluorescence are measured with the FLIPR^384 plate reader. In each well, the change in the fluorescent signal as a function of time due to calcium entry into the cell is determined by calculating the difference between the fluorescent signal measured 7 seconds after calcium addition and the initial baseline fluorescence signal at time zero (t=0). This parameter is designated Upslope. The IC50 value is calculated as the concentration at which 50% of the Upslope is inhibited.

Orai1/STIM1 = target: T1, Orai1/STIM1 (Homo sapiens, UniProt Q96D31); assay: Fluorescence-based assay of store-operated calcium entry in Orai1/STIM1 stable cells; format: cell-based; set-up: key to Orai1/STIM1 (IC50, μmol): A < 0.6 μmol; 0.6 μmol ≦ B ≦ 1.2 μmol; C > 1.2 μmol; — = no fit; conditions: HEK-293 cells stably expressing human STIM1 and Orai1, 50% inhibition of Peak-Basal fluo-4 signal; for IC50: read-out: Orai1/STIM1 (IC50, μmol)
T1 construct: expressed in transfected cells; host or cells: HEK-293
Method: A. Fluorescence-based Assay of Store-Operated Calcium Entry in Orai1/STIM1 Stable Cells.
Cells stably expressing recombinant human STIM1 and Orai1 are generated by transfecting a human Orai1 expression plasmid (pcDNA3.1-Orai1-cmyc) into HEK-293 cells stably overexpressing human STIM1 (Roos et al. 2005 JCB 169(3): 435-445). Colonies of cells stably expressing both STIM1 and Orai1 proteins are selected and then subcloned by limiting dilution. Cells were cultured at 37° C./6% CO2 in complete medium with 10% FBS and appropriate selection markers.
The day prior to performing the assay Orai1/STIM1 stable cells are plated in 50 μL of complete medium at 90-95% confluence in a 384 well plate. Cells are grown at 37° C./6% CO2 overnight. On the day of the assay, 1.5 μM fluo-4-AM (Invitrogen) in complete medium is added to the cells, which are then incubated for 1 hour at RT. Cells are washed once in Ca^2+-free HBSS (Hank's buffered saline solution) and 35 μl of Ca^2+-free HBSS is added to each well. Test compounds are added to wells in a 10 μL Ca^2+-free HBSS solution, prepared at 4.5× the desired final concentration, and incubated for 30 minutes at RT. The initial baseline fluorescence signal is then measured with a FLIPR^384 (Molecular Devices) plate reader. Calcium entry is initiated by adding 5 μl of 10× CaCl2 (10 mM) in HBSS, and changes in cellular fluorescence are measured with the FLIPR^384 plate reader. In each well, the magnitude of the fluorescence signal as a result of calcium entry into the cell is determined by calculating the difference between the peak fluorescence signal measured after calcium addition and the initial baseline fluorescence signal (designated Peak-Basal). IC50 values are typically calculated as the concentration that inhibited 50% of the Peak-Basal signal (Table A).

T1 sequence (Q96D31 whole entry): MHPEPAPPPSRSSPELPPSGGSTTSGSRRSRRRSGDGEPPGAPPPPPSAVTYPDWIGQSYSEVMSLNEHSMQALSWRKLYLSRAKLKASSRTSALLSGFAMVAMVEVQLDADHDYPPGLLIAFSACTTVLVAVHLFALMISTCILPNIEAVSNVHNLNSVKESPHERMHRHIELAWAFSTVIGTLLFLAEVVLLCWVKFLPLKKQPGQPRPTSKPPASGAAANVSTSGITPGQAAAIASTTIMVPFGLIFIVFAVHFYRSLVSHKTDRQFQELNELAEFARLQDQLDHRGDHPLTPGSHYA

| Compound | IC50 (RBL-2H3 cells; Table iii) | IC50 (Orai1/STIM1; Table iii) | IC50 (RBL-2H3 cells; Table iv) | IC50 (Orai1/STIM1; Table iv) | other results |
| --- | --- | --- | --- | --- | --- |
| Cc1cc2c(cc1-c1ccc(NC(=O)c3c(F)cncc3F)cc1)OC(F)(F)O2 |  |  | < 600 nM | > 1200 nM |  |
| Cc1cc2c(cc1-c1ccc(NC(=O)c3snnc3C)cc1)OC(F)(F)O2 |  |  | < 600 nM | 600 to 1200 nM |  |
| Cn1nc(C(F)(F)F)cc1-c1ccc(NC(=O)c2ccc(F)cc2F)cc1F |  |  | < 600 nM | < 600 nM |  |
| Cn1nc(C(F)(F)F)cc1-c1c(F)cc(NC(=O)c2c(F)cccc2F)cc1F |  |  | < 600 nM | > 1200 nM |  |
| Cc1cccc(F)c1C(=O)Nc1ccc(-c2cn(C(F)F)nc2C)c(F)c1 |  |  | < 600 nM | < 600 nM |  |
| Cc1cc2c(cc1-c1ccc(NCc3ccccc3F)cc1F)OC(F)(F)O2 | < 600 nM | > 1200 nM |  |  |  |
| Cc1nn(C(F)F)cc1-c1ccc(NC(=O)c2ccccc2F)cc1F |  |  | 600 to 1200 nM | < 600 nM |  |
| Cc1cc2c(cc1-c1ccc(NCc3c(C)cccc3F)cc1F)OC(F)(F)O2 | < 600 nM |  |  |  | Orai1/STIM1 (IC50, μmol) (Orai1/STIM1; Table iii): Max inh. <50% |
| Cn1nc(C(F)(F)F)cc1-c1ccc(NC(=O)c2ccncc2F)cc1F |  |  | < 600 nM | < 600 nM |  |
| Cc1ccccc1C(=O)Nc1ccc(-c2cn(C(F)F)nc2C)c(F)c1 |  |  | 600 to 1200 nM | < 600 nM |  |
| Cn1nc(C(F)(F)F)cc1-c1ccc(NCc2ccccc2F)c(F)c1 | > 1200 nM | 600 to 1200 nM |  |  |  |
| Cc1cccc(F)c1CNc1ccc(-c2cn(C(F)F)nc2C)cc1 | < 600 nM | < 600 nM |  |  |  |
| Cc1ccccc1CNc1ccc(-c2cc(C(F)(F)F)nn2C)c(F)c1 | < 600 nM | < 600 nM |  |  |  |
| Cc1cc(C(F)(F)F)nn1-c1ccc(NC(=O)c2c(F)cc(F)cc2F)cc1 |  |  | < 600 nM | 600 to 1200 nM |  |
| Cc1cc2c(cc1-c1ccc(NCc3c(F)cccc3F)cc1)OC(F)(F)O2 | < 600 nM | > 1200 nM |  |  |  |
| Cc1nnsc1CNc1ccc(-n2nc(C(F)(F)F)cc2C)cc1 |  |  |  |  | RBL-2H3 (IC50, μmol) (RBL-2H3 cells; Table iii): —; Orai1/STIM1 (IC50, μmol) (Orai1/STIM1; Table iii): — |

| Compound | IC50 (RBL-2H3 cells; Table iii) | IC50 (Orai1/STIM1; Table iii) | IC50 (RBL-2H3 cells; Table iv) | IC50 (Orai1/STIM1; Table iv) | other results |
| --- | --- | --- | --- | --- | --- |
| Cc1nnsc1C(=O)Nc1ccc(-c2cc(C(F)(F)F)nn2C)c(F)c1 |  |  | < 600 nM | < 600 nM |  |
| Cc1cccc(F)c1CNc1ccc(-c2nc(C(F)(F)F)sc2C)cc1 | < 600 nM | 600 to 1200 nM |  |  |  |
| Cc1cccc(F)c1C(=O)Nc1ccc(-c2cn(C(F)F)nc2C)cc1 |  |  | < 600 nM | 600 to 1200 nM |  |
| Cn1nc(C(F)(F)F)cc1-c1ccc(NC(=O)c2c(F)cc(F)cc2F)cc1F |  |  | < 600 nM | < 600 nM |  |
| Cc1nn(C(F)F)cc1-c1ccc(NCc2c(F)cc(F)cc2F)cc1 | < 600 nM | < 600 nM |  |  |  |
| Cn1nc(C(F)(F)F)cc1-c1ccc(NCc2cncc(F)c2)cc1F | < 600 nM | 600 to 1200 nM |  |  |  |
| CCn1nc(C(F)(F)F)cc1-c1ccc(NC(=O)c2c(F)cc(F)cc2F)cc1F |  |  | < 600 nM | 600 to 1200 nM |  |
| Cc1cc2c(cc1-c1ccc(NC(=O)c3ccccc3F)cc1)OC(F)(F)O2 |  |  | < 600 nM | 600 to 1200 nM |  |
| Cn1nc(C(F)(F)F)cc1-c1ccc(NCc2ccccc2F)cc1 | < 600 nM | < 600 nM |  |  |  |
| Fc1cnccc1CNc1ccc(-n2nc(C(F)(F)F)cc2C(F)(F)F)cc1 | < 600 nM | 600 to 1200 nM |  |  |  |
| Cn1nc(C(F)(F)F)cc1-c1ccc(NCc2c(F)cncc2F)c(F)c1 | < 600 nM | 600 to 1200 nM |  |  |  |
| Cc1cc(C(F)(F)F)nn1-c1ccc(NC(=O)c2ccccc2F)cc1 |  |  | < 600 nM | < 600 nM |  |
| Cc1sc(C(F)(F)F)nc1-c1ccc(NCc2ccccc2F)cc1 | < 600 nM | < 600 nM |  |  |  |
| Cn1nc(C(F)(F)F)cc1-c1ccc(NC(=O)c2c(F)cccc2F)c(F)c1 |  |  | < 600 nM | < 600 nM |  |
| Cc1cc2c(cc1-c1ccc(NCc3ccncc3F)cc1)OC(F)(F)O2 | < 600 nM | 600 to 1200 nM |  |  |  |
| Cn1nc(C(F)(F)F)cc1-c1ccc(NC(=O)c2c(Cl)cnn2C)cc1 |  |  | < 600 nM | < 600 nM |  |

More lines, main results first:

| IC50 (RBL-2H3 cells; Table iii) | IC50 (Orai1/STIM1; Table iii) | IC50 (RBL-2H3 cells; Table iv) | IC50 (Orai1/STIM1; Table iv) | Compound | other results |
| --- | --- | --- | --- | --- | --- |
| < 600 nM | < 600 nM |  |  | Cn1nc(C(F)(F)F)cc1-c1ccc(NCc2ccccc2F)cc1F |  |
| < 600 nM | < 600 nM |  |  | Cc1cccc(F)c1CNc1ccc(-c2cn(C(F)F)nc2C)c(F)c1 |  |
| < 600 nM | < 600 nM |  |  | Cn1nc(C(F)(F)F)cc1-c1ccc(NCc2c(F)ccc(F)c2F)cc1 |  |
| < 600 nM | < 600 nM |  |  | Cc1nc(C(F)(F)F)cn1-c1ccc(NCc2c(F)cncc2F)cc1F |  |
| < 600 nM | < 600 nM |  |  | Cc1nc(C(F)(F)F)cn1-c1ccc(NCc2c(F)cc(F)cc2F)cc1F |  |
| < 600 nM | < 600 nM |  |  | Cn1nc(C(F)(F)F)cc1-c1ccc(NCc2c(F)cc(F)cc2F)cc1F |  |
| < 600 nM | < 600 nM |  |  | Cc1sc(C(F)(F)F)nc1-c1ccc(NCc2c(F)cc(F)cc2F)cc1 |  |
| < 600 nM | < 600 nM |  |  | Cc1nn(C(F)F)cc1-c1ccc(NCc2c(F)cccc2F)cc1F |  |
| < 600 nM | < 600 nM |  |  | Cc1nc(C(F)(F)F)cn1-c1ccc(NCc2c(F)cccc2F)cc1 |  |
| < 600 nM | < 600 nM |  |  | Cc1sc(C(F)(F)F)nc1-c1ccc(NCc2c(F)cccc2F)cc1 |  |
| < 600 nM | < 600 nM |  |  | Cc1nc(C(F)(F)F)cn1-c1ccc(NCc2c(F)cccc2F)cc1F |  |
|  |  | < 600 nM | > 1200 nM | Cc1nc(C(F)(F)F)cn1-c1ccc(NC(=O)c2c(F)ccc(F)c2F)cc1 |  |
| < 600 nM | > 1200 nM |  |  | Cc1cc(F)ccc1CNc1ccc(-n2cc(C(F)(F)F)nc2C)c(F)c1 |  |
| < 600 nM | 600 to 1200 nM |  |  | Cc1cc(C(F)(F)F)nn1-c1ccc(NCc2c(F)cncc2F)cc1 |  |
|  |  | < 600 nM | > 1200 nM | Cc1nc(C(F)(F)F)cn1-c1ccc(NC(=O)c2c(F)cccc2F)cc1 |  |
|  |  | < 600 nM | > 1200 nM | Cc1nc(C(F)(F)F)cn1-c1ccc(NC(=O)c2ccccc2F)cc1F |  |
